Reference: patent US20090062255A1, “TUMOR-TARGETING EVALUATION METHODOLOGY AND COMPOUNDS RELATED THERETO” (THALLION PHARMACEUTICALS INC., priority 2007, published 2009)

Columns and labels:
[1] = test system: GL26 glioblastoma cell line; assay: MTT cytotoxicity, GL26 cell line; format: cell-based; conditions: 96 h, Human
Experimental: (§1) The cytotoxic activity of Compound 1 was further evaluated using a panel of brain tumor cell lines. This study was performed in collaboration with INSERM (Grenoble, France). Tumor cells (5,000 to 10,000 cells per well depending on their doubling time) were plated in 96-well flat-bottom plates and incubated for 24 hours before treatment. Tumor cells were then incubated for 96 hours with seven different concentrations of Compound 1: […], 0.01, and 0.001 μM. The in vitro cytotoxic activity was determined by a standard MTT assay.

PBR = biological target: T1, PBR (Rattus norvegicus, UniProt P16257); assay: In vivo PBR occupancy by PET (11C-(R)-PK11195) following IP administration; conditions: 30 mg/kg IP, 30 min before scan, mean±S.D.
T1 construct: from tissue; host or cells: orthotopic rat C6 glioma in Sprague-Dawley rats, in vivo
Experimental: (R)-1-(2-chlorophenyl)-N-methyl-N-(1-methyl-propyl)-3-isoquinoline carboxamide (R N-desmethyl PK11195), the precursor for the radioisotope-labeled (R) —PK11195, was purchased from ABX (Radeburg, Germany). The synthesis of ^11C-(R)-PK11195 was accomplished by a modification of the method of Camsonne et al. (J. Label. Compd. Radiopharm., 21: 985-991,1984). Briefly, ^11C-methyl iodide (^11C—CH3I) was transferred by a stream of nitrogen gas at a flow rate of 10 ml/min into a reaction medium containing 1 mg or R—N-desmethyl PK11195 previously dissolved in 0.5 mL of dimethylsulfoxide (DMSO) and about 20 mg of sodium hydroxide. The reaction was initiated at room temperature, with a bubbling of the ^11C—CH3I being continued over a 5 minute period. After bubbling was complete, the reaction mixture was left standing for 5 minutes. Purification was performed by high pressure liquid chromatography (HPLC) using a reverse-phase C18 column and a methanol:ammonium formate (20 mM) (80:20) mixture and a mobile phase at a flow rate of 3 mL/min. ^11C—(R) —PK11195 was eluted at 11 minutes and obtained with a specific radioactivity of […].
In vivo PET studies were performed 14 days post tumor implantation. […] Attenuation correction factors, for each rat (total of 7 animals), were determined using a 10 min ^57Co transmission scan acquired immediately prior to the dynamic scan. […]

[2] = test system: DN oligodendroglioma cell line; assay: MTT cytotoxicity, DN cell line; format: cell-based; conditions: 96 h, Human
Experimental: as §1

[3] = biological target: GABAA, the Central Benzodiazepine Receptor (CBR); assay: CBR radioligand binding assay ([3H]flunitrazepam, rat brain); conditions: 1 nM [3H]-Flunitrazepam
Description: GABAA, the Central Benzodiazepine Receptor (CBenzR or CBR) is involved in anxiolitic activities.
The procedures used were based on known assays: ACAT (from rat; Ref: Largis et al (1989), J. Lipid. Res., vol 30, 681-689), COX-2 (human; Ref: Riendeau et al (1997), Can. J. Physiol. Pharmacol., vol 75, 1088-1095 and Warner et al (1999), Pro. Natl. Acad. Sci. USA, vol 96, 7563-7568), 5-LO (human; Ref: Carter et al (1991), J. Pharmacol. Exp. Ther., vol 256, no 3, 929-937, and Safayhi et al (2000), Planta Medica, vol 66, 110-113), PBR (from rat; Le Fur et al (1983), Life Sci. USA, vol 33, 449-457), CysLT1 (human; Martin et al (2001), Biochem. Pharmacol., vol 62, no 9, 1193-1200) and CBR (from rat; Damm et al (1978), Res. Comm. Chem. Pathol. Pharmacol., vol 22, 597-600 and Speth et al (1979), Life Sci., vol 24, 351-357).
Binding Assays were done at constant concentration of the compound, in 1% DMSO as vehicle, and are specified below each enzyme/receptor type in Table 18. The results are expressed in Table 18 as percentage inhibition. […]
As Compound 1 was isolated from structural prediction through genetic analysis and activity identified through in vitro cytotoxic assays, its molecular target(s) were unknown at the time of discovery. […] The effect of ECO-4601 on CBR (GABAA) and PBR was initially evaluated in a radioligand-binding assay at MDS Pharma Services (Taipei, Tawain). […]

human MiaPaCa-2 tumors = assay: Human MiaPaCa-2 tumors in mice, antitumor efficacy; format: in vivo; conditions: 30 mg/kg SC, Q1D×5 for 3 wk, established MiaPaCa-2 tumors
Experimental: Mice bearing established (100 mm^3) human MiaPaCa-2 tumors were dosed with 30 mg/kg (Q1D×5 for 3 wk; SC administration). The positive control group was treated with gemcitabine at 60 mg/kg once a day on Monday and Thursday (TWx4). ECO-4601 as a single agent was statistically different from the vehicle control group (P ˜0.008) following SC daily dosing resulting in a T/C of 56% (FIG. 12).

in vivo = conditions: CD-1 nu/nu, mouse, iv

Row | Compound | IC50 [1] [µM] | mean tumor binding potential (B.P.) after compound (PBR) | IC50 [2] [µM] | IC50 [3] [µM] | T/C (human MiaPaCa-2 tumors) [%] | MTD (in vivo) [mg/kg]
1 | CC(C)=CCC/C(C)=C/CC/C(C)=C/CN1C(=O)c2cccc(O)c2Nc2c(O)cc(O)cc21 [Compound 1, 10-farnesyl-4,6,8-trihydroxy-5,10-dihydrodibenzo[b,e][1,4]diazepin-11-one] | 8.9 ± 1.1 | 1.05±0.34 | 3 ± 0.7 | > 10 | 56 | 
2 | CC(C)=CCC/C(C)=C/CC/C(C)=C/CN1C(=O)c2cccc(O)c2N(C)c2c(O)cc(O)cc21 [Compound 2, 10-farnesyl-4,6,8-trihydroxy-5-methyl-5,10-dihydro-dibenzo[b,e][1,4]diazepin-11-one] |  |  |  |  |  | > 100
